Results: patent publication US8088820B2, “Substituted tetracycline compounds for the treatment of malaria” (Paratek Pharmaceuticals, Inc., priority 2001, dated 2012)

Assay: in vitro
Details: African green monkey (COS-1); Chinese hamster (CHO)

IC50 at 24 h [µg/mL]	Compound
> 25	C[C@H]1c2cccc(O)c2C(=O)C2=C(O)[C@]3(O)C(=O)C(C(N)=O)=C(O)[C@@H](N(C)C)[C@@H]3[C@@H](O)[C@@H]21 [doxycycline]
> 25	CN(C)c1ccc(O)c2c1C[C@H]1C[C@H]3[C@H](N(C)C)C(O)=C(C(N)=O)C(=O)[C@@]3(O)C(O)=C1C2=O [minocycline]
